Several values for one entry are separate records, joined by “and”; a condition that tells them apart may be missing. Equal values may be shown once. ± gives the expanded uncertainty stated by the source.
Key:
[1] = for vapor or sublimation pressure: Calculated from knudsen effusion weight loss
[2] = Molar enthalpy of transition or fusion; conditions: DSC

O[C@@H]1[C@@H](O)[C@@H]2OC[C@@H](O2)[C@H]1O [1,6-anhydro-β-D-glucopyranose]
vapor or sublimation pressure ([1]; 361.13 K, Crystal 2): 5.35e-05 ± 1e-05 kPa and 6.29e-05 ± 1e-05 kPa and 5.88e-05 ± 1e-05 kPa | vapor or sublimation pressure ([1]; 363.14 K, Crystal 2): 7.32e-05 ± 1e-05 kPa and 7.78e-05 ± 1e-05 kPa | vapor or sublimation pressure ([1]; 365.22 K, Crystal 2): 0.000102 ± 1.1e-05 kPa and 0.000101 ± 1.1e-05 kPa and 9.67e-05 ± 1.1e-05 kPa | vapor or sublimation pressure ([1]; 367.16 K, Crystal 2): 0.00012 ± 1.1e-05 kPa and 0.000119 ± 1.1e-05 kPa and 0.000113 ± 1.1e-05 kPa | vapor or sublimation pressure ([1]; 369.14 K, Crystal 2): 0.000164 ± 1.2e-05 kPa and 0.000144 ± 1.1e-05 kPa and 0.000152 ± 1.1e-05 kPa | vapor or sublimation pressure ([1]; 371.15 K, Crystal 2): 0.000183 ± 1.2e-05 kPa and 0.000192 ± 1.2e-05 kPa | vapor or sublimation pressure ([1]; 373.15 K, Crystal 2): 0.000247 ± 1.3e-05 kPa and 0.000231 ± 1.3e-05 kPa | vapor or sublimation pressure ([1]; 375.13 K, Crystal 2): 0.000317 ± 1.5e-05 kPa and 0.00028 ± 1.4e-05 kPa and 0.000289 ± 1.4e-05 kPa | vapor or sublimation pressure ([1]; 377.22 K, Crystal 2): 0.000407 ± 1.8e-05 kPa and 0.000368 ± 1.6e-05 kPa and 0.000396 ± 1.7e-05 kPa | vapor or sublimation pressure ([1]; 379.15 K, Crystal 2): 0.000476 ± 2e-05 kPa and 0.000472 ± 1.9e-05 kPa and 0.000458 ± 1.9e-05 kPa | Normal melting temperature ([1]; Crystal 1, DTA): 182.2 ± 0.4 °C | Triple point temperature ([1]; Crystal 2, DTA): 384.9 ± 0.7 K | Molar enthalpy of transition or fusion ([2]; Crystal 1): 0.789 ± 0.0956 kcal/mol | Molar enthalpy of transition or fusion ([2]; Crystal 2): 5.54 ± 0.215 kcal/mol

Source: the NIST ThermoML archive (doi:10.1021/je400207t)
